Read-outs that look alike come from different tables or passages of the source. Blank lines part the entries; values can stand above or below the compound they belong to.
Assays:
rPAPD5 = molecular target: T1, rPAPD5 (Homo sapiens, UniProt Q8NDF8); assay: differential scanning fluorimetry (DSF) binding and stabilization of rPAPD5; conditions: for ΔTm at 1 µM: read-out: ΔTm at 1 μM; for ΔTm at 100 µM: read-out: ΔTm at 100 μM
T1 construct: made in house
Method in brief: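 Differential scanning fluorimetry was used to measure how test compounds bind and thermally stabilize rPAPD5. The reaction contained SYPRO orange dye diluted 1:5000 in […] of buffer with […], 25 mM Tris-HCl, 5 mM MgCl2 and 50 mM KCl. ΔTm was calculated relative to a DMSO control.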

[1] = tested on: TERC 3′ end processing in DC patient iPSCs; assay: TERC 3′ end processing by RACE in DC patient / PARN-mutant iPSCs; assay type: cell-based, human; conditions: Homo sapiens, iPSC, read-out: iPSC-based RACE activity
Procedure: Compound 266A had activity ˜2-logs higher in the in vitro RNA oligoadenylation assay compared to the parental compound cmpd. 1, approximating the activity of RG7834 (FIG. 7). […] 1. Compounds 295A and 296A had activity 2-3 logs higher in DC patient iPSCs, showing TERC maturation at 1 nM, similar to RG7834 (FIG. 6). […] Referring to Table 1D, “+” refers to activity at 1 μM, “++” refers to activity above 1 nM and below 1 μM, and “+++” refers to activity at <1 nM, “ND” refers to not determined.

[2] = 10 μM test compound (Table 2a), read-out: ΔTm at 10 μM
[3] = 100 μM test compound, shift vs DMSO control
[4] = patient iPSCs, concentration class at which activity is seen
[5] = 10 μM test compound, shift vs DMSO control, read-out: ΔTm (Table 2, starred: the compound was tested at 10 μM)

T1 sequence (Q8NDF8 68-698 isoform Q8NDF8-5 limits assumed): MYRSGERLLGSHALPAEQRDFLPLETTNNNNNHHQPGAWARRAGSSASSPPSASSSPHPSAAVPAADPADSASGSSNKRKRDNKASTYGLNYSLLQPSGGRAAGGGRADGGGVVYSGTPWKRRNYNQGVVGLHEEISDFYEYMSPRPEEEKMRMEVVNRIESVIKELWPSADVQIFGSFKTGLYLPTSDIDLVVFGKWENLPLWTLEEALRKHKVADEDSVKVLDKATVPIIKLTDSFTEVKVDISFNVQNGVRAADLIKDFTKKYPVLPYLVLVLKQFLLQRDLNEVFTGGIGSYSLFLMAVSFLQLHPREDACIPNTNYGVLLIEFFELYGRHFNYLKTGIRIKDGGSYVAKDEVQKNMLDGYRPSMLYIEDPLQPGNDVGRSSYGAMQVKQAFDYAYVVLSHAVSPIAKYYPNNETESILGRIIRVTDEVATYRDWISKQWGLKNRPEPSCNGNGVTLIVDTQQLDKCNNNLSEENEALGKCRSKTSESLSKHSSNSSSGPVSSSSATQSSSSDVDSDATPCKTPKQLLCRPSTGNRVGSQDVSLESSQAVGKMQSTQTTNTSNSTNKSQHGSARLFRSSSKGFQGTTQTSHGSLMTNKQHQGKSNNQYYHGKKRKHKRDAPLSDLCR

Structure (SMILES): O=C(O)c1cc(Cl)ccc1Nc1c(C2CCC(F)CC2)cnc2ccc(Cl)cc12 (centres unmarked) [Compound 400A, 5-chloro-2-[[6-chloro-3-(4-fluorocyclohexyl)-4-quinolyl]amino]benzoic acid]
ΔTm at 10 µM (rPAPD5; read-out: ΔTm (Table 2, starred: the compound was tested at 10 μM)): > 5 °C
ΔTm at 1 µM (rPAPD5): > 5 °C
ΔTm at 10 µM (rPAPD5; read-out: ΔTm at 10 μM): > 5 °C
minimal effective concentration [1]: < 0.001 µM

Structure (SMILES): Cc1ccc(-c2ccc3ncc(S(=O)(=O)N4CCOCC4)c(Nc4ccccc4C(=O)O)c3c2)s1 [Compound 136A]
ΔTm at 100 µM (rPAPD5; [3]): 1 to 5 °C

Structure (SMILES): O=C(O)c1c(F)cccc1Nc1c(S(=O)(=O)N2CCOCC2)cnc2ccc(Cl)cc12 [Compound 125A]
ΔTm at 100 µM (rPAPD5; [3]): 1 to 5 °C

Structure (SMILES): O=C(O)c1ccccc1Nc1c(-c2nccs2)cnc2ccc(Cl)cc12 [Compound 211A, 2-[(6-chloro-3-thiazol-2-yl-4-quinolyl)amino]benzoic acid]
ΔTm at 100 µM (rPAPD5; [3]): > 5 °C

Structure (SMILES): O=C(O)c1ccccc1Nc1c(S(=O)(=O)N2CCOCC2)cnc2ccc(-c3cncc4[nH]ccc34)cc12 [Compound 160A, 2-[[3-morpholinosulfonyl-6-(1H-pyrrolo[2,3-c]pyridin-4-yl)-4-quinolyl]amino]benzoic acid]
ΔTm at 100 µM (rPAPD5; [3]): > 5 °C

Structure (SMILES): O=C(O)c1ccccc1Nc1c(S(=O)(=O)N2CCN(C(=O)OCc3ccccc3)CC2)cnc2ccc(Cl)cc12 [Compound 123A-CBZ]
ΔTm at 10 µM (rPAPD5; [5]): > 5 °C

Structure (SMILES): O=C(O)c1c(Nc2c(S(=O)(=O)N3CCOCC3)cnc3ccc(Cl)cc23)cccc1C(O)(O)C(F)(F)F [Compound 127A-1]
ΔTm at 100 µM (rPAPD5; [3]): > 5 °C

Structure (SMILES): CN(C)c1ncc(-c2ccc3ncc(S(=O)(=O)N4CCOCC4)c(Nc4ccccc4C(=O)O)c3c2)cn1 [Compound 142A]
ΔTm at 100 µM (rPAPD5; [3]): 1 to 5 °C

Structure (SMILES): O=C(O)c1ccccc1Nc1c(S(=O)(=O)N2CCOCC2)cnc2ccc(-c3cn(S(=O)(=O)c4ccccc4)c4ncccc34)cc12 [Compound 144A]
ΔTm at 100 µM (rPAPD5; [3]): > 5 °C

Structure (SMILES): O=C(O)c1c(Nc2c(S(=O)(=O)N3CCOCC3)cnc3ccc(Cl)cc23)cccc1N1CCC1 [Compound 87A-Cl]
ΔTm at 100 µM (rPAPD5; [3]): 1 to 5 °C

Structure (SMILES): Cc1cc(OCc2ccccc2)ccc1-c1ccc2ncc(S(=O)(=O)N3CCOCC3)c(Nc3ccccc3C(=O)O)c2c1 [Compound 176A, 2-[[6-(4-benzyloxy-2-methyl-phenyl)-3-morpholinosulfonyl-4-quinolyl]amino]benzoic acid]
ΔTm at 10 µM (rPAPD5; [5]): < 1 °C

Structure (SMILES): CCN(CC)C(=O)c1ccc(-c2ccc3ncc(S(=O)(=O)N4CCOCC4)c(Nc4ccccc4C(=O)O)c3c2)cc1 [Compound 174A, 2-[[6-[4-(diethylcarbamoyl)phenyl]-3-morpholinosulfonyl-4-quinolyl]amino]benzoic acid]
ΔTm at 100 µM (rPAPD5; [3]): < 1 °C

Structure (SMILES): O=C(O)c1ccccc1Nc1c(C2CCOCC2)cnc2c1CCCC2 [Compound 204A-BP, 2-[(3-tetrahydropyran-4-yl-5,6,7,8-tetrahydroquinolin-4-yl)amino]benzoic acid]
ΔTm at 100 µM (rPAPD5; [3]): > 5 °C

Structure (SMILES): O=C(O)c1c(O)cccc1Nc1c(S(=O)(=O)N2CCC(F)(F)CC2)cnc2ccc(OC(F)(F)F)cc12 [Compound 133A]
ΔTm at 100 µM (rPAPD5; [3]): > 5 °C

Structure (SMILES): O=C(O)c1ccccc1Nc1c(S(=O)(=O)N2CCOCC2)cnc2ccc(-c3ccnc4[nH]ccc34)cc12 [Compound 159A, 2-[[3-morpholinosulfonyl-6-(1H-pyrrolo[2,3-b]pyridin-4-yl)-4-quinolyl]amino]benzoic acid]
ΔTm at 100 µM (rPAPD5; [3]): > 5 °C

Structure (SMILES): O=C(O)c1ccccc1Nc1c(S(=O)(=O)N2CCOCC2)cnc2ccc(N3CCOCC3)cc12 [Compound 248A, 2-[(6-morpholino-3-morpholinosulfonyl-4-quinolyl)amino]benzoic acid]
ΔTm at 100 µM (rPAPD5; [3]): 1 to 5 °C

Structure (SMILES): O=C(O)c1ccccc1Nc1c(S(=O)(=O)N2CCS(=O)(=O)CC2)cnc2ccc(Cl)cc12 [Compound 220A, 2-[[6-chloro-3-[(1,1-dioxo-1,4-thiazinan-4-yl)sulfonyl]-4-quinolyl]amino]benzoic acid]
ΔTm at 100 µM (rPAPD5; [3]): > 5 °C

Structure (SMILES): NC(=O)c1ccc(Nc2c(S(=O)(=O)N3CCOCC3)cnc3ccc(Cl)cc23)c(C(=O)O)c1 [Compound 373A, 5-carbamoyl-2-[(6-chloro-3-morpholinosulfonyl-4-quinolyl)amino]benzoic acid]
ΔTm at 100 µM (rPAPD5): 1 to 5 °C

Structure (SMILES): CN1CCC(c2cnc3ccc(Cl)cc3c2Nc2ccccc2C(=O)O)CC1 [Compound 207A, 2-[[6-chloro-3-(1-methyl-4-piperidyl)-4-quinolyl]amino]benzoic acid]
ΔTm at 100 µM (rPAPD5; [3]): > 5 °C

Second part, led by results:

ΔTm at 1 µM (rPAPD5; 1 μM test compound (Table 2a)): > 5 °C
ΔTm at 10 µM (rPAPD5; [2]): > 5 °C
ΔTm at 100 µM (rPAPD5; [3]): > 5 °C
Structure (SMILES): O=C(O)c1cc(Cl)ccc1Nc1c(N2CCNCC2)cnc2ccc(Cl)cc12 [Compound 362A, 5-chloro-2-[(6-chloro-3-piperazin-1-yl-4-quinolyl)amino]benzoic acid]
minimal effective concentration [1, 4]: 1 µM

ΔTm at 1 µM (rPAPD5; 1 μM test compound (Table 2a)): 1 to 5 °C
ΔTm at 10 µM (rPAPD5; [2]): > 5 °C
ΔTm at 10 µM (rPAPD5; [5]): > 5 °C
Structure (SMILES): Cc1cc(Nc2c(S(=O)(=O)N3CCSCC3)cnc3ccc(Cl)cc23)c(C(=O)O)cc1Cl [Compound 426A, 5-chloro-2-[(6-chloro-3-thiomorpholinosulfonyl-4-quinolyl)amino]-4-methyl-benzoic acid]
minimal effective concentration [1, 4]: 1 µM

ΔTm at 1 µM (rPAPD5; 1 μM test compound (Table 2a)): > 5 °C
ΔTm at 10 µM (rPAPD5; [2]): > 5 °C
ΔTm at 100 µM (rPAPD5; [3]): > 5 °C
Structure (SMILES): O=C(O)c1cc(Cl)ccc1Nc1c(S(=O)(=O)N2CCSCC2)cnc2cc(F)c(Cl)cc12 [Compound 415A, 5-chloro-2-[(6-chloro-7-fluoro-3-thiomorpholinosulfonyl-4-quinolyl)amino]benzoic acid]
minimal effective concentration [1, 4]: 1 µM

ΔTm at 1 µM (rPAPD5; 1 μM test compound (Table 2a)): > 5 °C
ΔTm at 10 µM (rPAPD5; [2]): > 5 °C
ΔTm at 100 µM (rPAPD5; [3]): > 5 °C
Structure (SMILES): O=C(O)c1cc(Cl)ccc1Nc1c(C2=CCNC2)cnc2ccc(Cl)cc12 [Compound 402A, 5-chloro-2-((6-chloro-3-(2,5-dihydro-1H-pyrrol-3-yl)quinolin-4-yl)amino)benzoic acid]
minimal effective concentration [1, 4]: 1 µM

ΔTm at 1 µM (rPAPD5; 1 μM test compound (Table 2a)): > 5 °C
ΔTm at 10 µM (rPAPD5; [2]): > 5 °C
ΔTm at 100 µM (rPAPD5; [3]): > 5 °C
Structure (SMILES): O=C1CC=C(c2cnc3ccc(Cl)cc3c2Nc2ccc(Cl)cc2C(=O)O)CC1 [Compound 403A, 5-chloro-2-[[6-chloro-3-(4-oxocyclohexen-1-yl)-4-quinolyl]amino]benzoic acid]
minimal effective concentration [1, 4]: 1 µM

ΔTm at 1 µM (rPAPD5; 1 μM test compound (Table 2a)): > 5 °C
ΔTm at 10 µM (rPAPD5; [2]): > 5 °C
ΔTm at 100 µM (rPAPD5; [3]): > 5 °C
Structure (SMILES): O=C(O)c1cc(Cl)ccc1Nc1c(C2CCNC2)cnc2ccc(Cl)cc12 (centres unmarked) [Compound 357A, 5-chloro-2-((6-chloro-3-(pyrrolidin-3-yl)quinolin-4-yl)amino)benzoic acid]
minimal effective concentration [1, 4]: 1 µM

ΔTm at 1 µM (rPAPD5; 1 μM test compound (Table 2a)): > 5 °C
ΔTm at 10 µM (rPAPD5; [2]): > 5 °C
ΔTm at 100 µM (rPAPD5; [3]): > 5 °C
Structure (SMILES): O=C(O)c1cc(Cl)ccc1Nc1c(C(=O)N2CCOCC2)cnc2ccc(Cl)cc12 [Compound 372A, 5-chloro-2-[[6-chloro-3-(morpholine-4-carbonyl)-4-quinolyl]amino]benzoic acid]
minimal effective concentration [1, 4]: 1 µM

ΔTm at 1 µM (rPAPD5; 1 μM test compound (Table 2a)): > 5 °C
ΔTm at 10 µM (rPAPD5; [2]): > 5 °C
ΔTm at 100 µM (rPAPD5; [3]): > 5 °C
Structure (SMILES): O=C(O)c1cc(Cl)c(F)cc1Nc1c(S(=O)(=O)N2CCSCC2)cnc2ccc(Cl)cc12 [Compound 425A, 5-chloro-2-[(6-chloro-3-thiomorpholinosulfonyl-4-quinolyl)amino]-4-fluoro-benzoic acid]
minimal effective concentration [1, 4]: 0.001 to 1 µM

ΔTm at 1 µM (rPAPD5; 1 μM test compound (Table 2a)): > 5 °C
ΔTm at 10 µM (rPAPD5; [2]): > 5 °C
ΔTm at 10 µM (rPAPD5; [5]): > 5 °C
Structure (SMILES): O=C(O)c1cc(Cl)ccc1Nc1c(N2CCC(OC(F)(F)F)CC2)cnc2ccc(Cl)cc12 [Compound 394A, 5-chloro-2-[[6-chloro-3-[4-(trifluoromethoxy)-1-piperidyl]-4-quinolyl]amino]benzoic acid]
minimal effective concentration [1, 4]: < 0.001 µM

ΔTm at 100 µM (rPAPD5; [3]): 1 to 5 °C
Structure (SMILES): O=C(O)c1cccc(O)c1Nc1c(S(=O)(=O)N2CCOCC2)cnc2ccc(Cl)cc12 [Compound 279A, 2-[(6-chloro-3-morpholinosulfonyl-4-quinolyl)amino]-3-hydroxy-benzoic acid]

ΔTm at 100 µM (rPAPD5; [3]): > 5 °C
Structure (SMILES): O=C(O)c1cccc(Br)c1Nc1c(S(=O)(=O)N2CCOCC2)cnc2ccc(Cl)cc12 [Compound 282A, 3-bromo-2-[(6-chloro-3-morpholinosulfonyl-4-quinolyl)amino]benzoic acid]

ΔTm at 100 µM (rPAPD5; [3]): < 1 °C
Structure (SMILES): O=C(O)c1cc(Br)ccc1Nc1c(S(=O)(=O)N2CCOCC2)cnc2ccc(Cl)cc12 [Compound 268A, 5-bromo-2-[(6-chloro-3-morpholinosulfonyl-4-quinolyl)amino]benzoic acid]

ΔTm at 100 µM (rPAPD5; [3]): 1 to 5 °C
Structure (SMILES): O=C(O)c1ccc(C(F)(F)F)cc1Nc1c(S(=O)(=O)N2CCOCC2)cnc2ccc(Cl)cc12 [Compound 278A, 2-[(6-chloro-3-morpholinosulfonyl-4-quinolyl)amino]-4-(trifluoromethyl)benzoic acid]

ΔTm at 100 µM (rPAPD5; [3]): > 5 °C
Structure (SMILES): O=C(O)c1cccc(Cl)c1Nc1c(S(=O)(=O)N2CCOCC2)cnc2ccc(Cl)cc12 [Compound 280A, 3-chloro-2-[(6-chloro-3-morpholinosulfonyl-4-quinolyl)amino]benzoic acid]

ΔTm at 100 µM (rPAPD5; [3]): > 5 °C
Structure (SMILES): O=C(O)c1ccc(Cl)cc1Nc1c(S(=O)(=O)N2CCOCC2)cnc2ccc(Cl)cc12 [Compound 274A, 4-chloro-2-[(6-chloro-3-morpholinosulfonyl-4-quinolyl)amino]benzoic acid]

ΔTm at 100 µM (rPAPD5; [3]): > 5 °C
Structure (SMILES): O=C(O)c1ccc(Br)cc1Nc1c(S(=O)(=O)N2CCOCC2)cnc2ccc(Cl)cc12 [Compound 276A, 4-bromo-2-[(6-chloro-3-morpholinosulfonyl-4-quinolyl)amino]benzoic acid]

From patent publication US20250026769A1, “PAPD5 INHIBITORS AND METHODS OF USE THEREOF” (The Children's Medical Center Corporation, priority 2021, published 2025)
